# Test results reported in patent US20040002130A1, “Disruption of PQS synthesis using precursor analogs” (priority 2002, published 2004).
# Experiments:
# [1] = system: P. aeruginosa strain PAO1; assay: Growth of cultures in the presence of methyl anthranilate; type: cell-based; conditions: 0, 0.25, 0.5, 1.0, and 1.5 mM methyl anthranilate
# Protocol: P. aeruginosa strain PAO1 was grown in the presence of increasing amounts of methyl anthranilate, and culture supernatants were extracted with ethyl acetate and separated on TLC plates. PQS was visualized under long-wave UV light and photographed to quantify PQS densitometrically. The amount of PQS present in the culture supernatant decreased as the concentration of methyl anthranilated increased, although the growth of the cultures was not affected by the presence of methyl anthranilate at the concentrations used in these experiments (0, 0.25, 0.5, 1.0, and 1.5 mM methyl anthranilate, with approximately 30% PQS being produced at 1.5 mM methyl anthranilate as compared to wild type bacateria).
# PQS production = assay: Effect of methyl anthranilate on PQS production (TLC of culture supernatant extracts, densitometry); type: cell-based, P. aeruginosa strain PAO1
# Protocol: Bacteria from frozen stocks were grown overnight on PTSB agar plates (Ohman, et al. (1980) J. Bacteriol. 142:836-842) at 37° C. Isolated colonies were used to inoculate 10 ml of PTSB which was then incubated for 18 hr at 37° C. with vigorous shaking. Cultures were diluted 1:100 into fresh media and grown for 24 hr as above. A 400 μl aliquot of each culture was mixed with 800 μl of acidified ethyl acetate (Pesci, et al. (1999) Proc. Natl. Acad. Sci. USA 96:11229-11234), vortexed vigorously for 30 sec, then centrifuged for 10 min at 16,000×g. The organic phase was transferred to a fresh tube, and the aqueous phase was re-extracted with an additional 800 μl of solvent. The organic phases were combined, dried to completion and the solute was dissolved in 200 μl of a 1:1 mix of acidified ethyl acetate:acetonitrile. An amount of extract derived from 5 μl of culture was loaded onto the TLC plate. TLC was performed with a silica gel 60 F254 TLC plate (EM Science) that had been soaked in 5% KH2PO4 and activated at 100° C. for one hour. […]
# P. aeruginosa strain PAO1 was grown in the presence of increasing amounts of methyl anthranilate, and culture supernatants were extracted with ethyl acetate and separated on TLC plates. PQS was visualized under long-wave UV light and photographed to quantify PQS densitometrically. […]
smiles,measurement,setting,value
COC(=O)c1ccccc1N [methyl anthranilate],growth of the cultures,[1],not affected
same,PQS being produced as compared to wild type bacteria,"PQS production; 1.5 mM methyl anthranilate, strain PAO1 culture supernatant, densitometry of TLC under long-wave UV",approximately 30%
same,amount of PQS present in the culture supernatant,"PQS production; increasing methyl anthranilate concentration (0, 0.25, 0.5, 1.0, and 1.5 mM), strain PAO1",decreased
